Test results as given in ChEMBL document CHEMBL6087442, “Modulating the Potency of BRD4 PROTACs at the Systems Level with Amine-Acid Coupling Reactions” (J Med Chem, 2025).

Tests used:
[1] = Chromatographic hydrophobicity index, logD of the compound at pH 7.4; assay type: physicochemical; details: buffer
[2] = target: T1, von Hippel-Lindau disease tumor suppressor/Bromodomain-containing protein 4 (Homo sapiens, UniProt O60885+P40337); assay: PROTAC activity at VHL/BRD4 in HEK293 cells assessed as induction of BRD4 degradation incubated for 24 hrs by HTRF assay; assay type: cell-based
T1 sequence (P40337 whole entry, looked up, other chains not shown): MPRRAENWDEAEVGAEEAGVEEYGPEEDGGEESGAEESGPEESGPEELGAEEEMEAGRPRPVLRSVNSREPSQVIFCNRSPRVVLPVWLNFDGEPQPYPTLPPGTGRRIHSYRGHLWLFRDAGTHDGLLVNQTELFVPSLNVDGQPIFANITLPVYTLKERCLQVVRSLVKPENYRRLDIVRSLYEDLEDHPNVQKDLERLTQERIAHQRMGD

[3] = target: T1, von Hippel-Lindau disease tumor suppressor/Bromodomain-containing protein 4; assay: PROTAC activity at VHL/BRD4 in HEK293 cells assessed as induction of BRD4 degradation by measuring maximal efficacy incubated for 24 hrs by HTRF assay relative to control; assay type: cell-based
[4] = target: T2, Protein cereblon/Bromodomain-containing protein 4 (Homo sapiens, UniProt O60885+Q96SW2); assay: PROTAC activity at CRBN/BRD4 in HEK293 cells assessed as induction of BRD4 degradation incubated for 24 hrs by HTRF assay; assay type: cell-based
[5] = target: T2, Protein cereblon/Bromodomain-containing protein 4; assay: PROTAC activity at CRBN/BRD4 in HEK293 cells assessed as induction of BRD4 degradation by measuring maximal efficacy incubated for 24 hrs by HTRF assay relative to control; assay type: cell-based
[6] = target: Bromodomain-containing protein 4 (Homo sapiens, UniProt O60885); assay: Binding affinity to N-terminal GST-tagged BRD4-BD1 (unknown origin) using biotinylated histon4 peptide as substrate incubated for 30 mins by HTRF assay
[7] = target: T3, Protein cereblon (Homo sapiens, UniProt Q96SW2); assay: Binding affinity to NanoLuc-fused CRBN (unknown origin) transfected in live HEK293 cells using NanoGlo as substrate incubated for 2 hrs by NanoBRET assay; assay type: cell-based
[8] = target: T3, Protein cereblon; assay: Binding affinity to NanoLuc-fused CRBN (unknown origin) transfected in permeabilized HEK293 cells using NanoGlo as substrate incubated for 2 hrs by NanoBRET assay; assay type: cell-based
[9] = organism: Homo sapiens; assay: Selectivity ratio of IC50 for NanoLuc-fused CRBN (unknown origin) transfected in live HEK293 cells to IC50 for NanoLuc-fused CRBN (unknown origin) transfected in permeabilized HEK293 cells; assay type: cell-based
[10] = target: T4, Protein cereblon/Bromodomain-containing protein 4/DNA damage-binding protein 1 (Homo sapiens) (UniProt O60885+Q96SW2+Q16531); assay: Binding affinity to biotinylated CRBN/DDB1/N-terminal GST-tagged BRD4-BD1 (unknown origin) assessed as ternary complex formation (KTF) by HTRF assay; assay type: protein assay
[11] = target: T4, Protein cereblon/Bromodomain-containing protein 4/DNA damage-binding protein 1 (Homo sapiens); assay: Binding affinity to biotinylated CRBN/DDB1/N-terminal GST-tagged BRD4-BD1(unknown origin) assessed as ternary complex formation (AUC) by HTRF assay; assay type: protein assay

Row | chromatographic logD [1] | DC50 [2] | Emax [3] | DC50 [4] | Emax [5] | IC50 [6] | IC50 [7] | IC50 [8] | Compound | Ratio IC50 [9] | K [10] | AUC [11]
1 | 2.78 | 68.3 nM | 87% |  |  |  |  |  | Cc1ncsc1-c1ccc(CNC(=O)[C@@H]2C[C@@H](O)CN2C(=O)[C@H](C(C)C)N2Cc3ccccc3C2=O)c(OCCCOCCNC(=O)C[C@@H]2N=C(c3ccc(Cl)cc3)c3c(sc(C)c3C)-n3c(C)nnc32)c1 |  |  | 
2 | 3.16 | 13.4 nM | 79% |  |  |  |  |  | Cc1ncsc1-c1ccc(CNC(=O)[C@@H]2C[C@@H](O)CN2C(=O)[C@H](C(C)C)N2Cc3ccccc3C2=O)c(OCCCOCCC(=O)C[C@@H]2N=C(c3ccc(Cl)cc3)c3c(sc(C)c3C)-n3c(C)nnc32)c1 |  |  | 
3 | 2.57 |  |  | 9.2 nM | 85% | 24.2 nM | 422 nM | 107 nM | Cc1sc2c(c1C)C(c1ccc(Cl)cc1)=N[C@@H](CC(=O)CCCCNC(=O)COc1cccc3c1C(=O)N(C1CCC(=O)NC1=O)C3=O)c1nnc(C)n1-2 (stereo not given in full) | 3.9 | 6.7 nM | 251
4 | 2.3 | > 11000 nM | 14% |  |  |  |  |  | Cc1ncsc1-c1ccc(CNC(=O)[C@@H]2C[C@@H](O)CN2C(=O)[C@H](C(C)C)N2Cc3ccccc3C2=O)c(OCCCOCCNCC[C@@H]2N=C(c3ccc(Cl)cc3)c3c(sc(C)c3C)-n3c(C)nnc32)c1 |  |  | 
5 | 3.25 | 15.8 nM | 89% |  |  |  |  |  | Cc1ncsc1-c1ccc(CNC(=O)[C@@H]2C[C@@H](O)CN2C(=O)[C@H](C(C)C)N2Cc3ccccc3C2=O)c(OCCCOCCOC(=O)C[C@@H]2N=C(c3ccc(Cl)cc3)c3c(sc(C)c3C)-n3c(C)nnc32)c1 |  |  | 
6 | 3.38 | 228 nM | 58% |  |  |  |  |  | Cc1ncsc1-c1ccc(CNC(=O)[C@@H]2C[C@@H](O)CN2C(=O)[C@H](C(C)C)N2Cc3ccccc3C2=O)c(OCCCOCCCC[C@@H]2N=C(c3ccc(Cl)cc3)c3c(sc(C)c3C)-n3c(C)nnc32)c1 |  |  | 
7 | 2.16 |  |  |  | 80% |  |  |  | Cc1sc2c(c1C)C(c1ccc(Cl)cc1)=N[C@@H](CC(=O)NCCCCNC(=O)COc1cccc3c1C(=O)N(C1CCC(=O)NC1=O)C3=O)c1nnc(C)n1-2 (stereo not given in full) |  | 9.4 nM | 163
8 | 2.68 |  |  | 5.4 nM | 83% | 2.3 nM | 264 nM | 68.8 nM | Cc1sc2c(c1C)C(c1ccc(Cl)cc1)=N[C@@H](CC(=O)OCCCCNC(=O)COc1cccc3c1C(=O)N(C1CCC(=O)NC1=O)C3=O)c1nnc(C)n1-2 (stereo not given in full) | 2.4 | 5 nM | 158
9 | 1.66 |  |  | > 11000 nM | 2% | 453 nM | 11300 nM | 102 nM | Cc1sc2c(c1C)C(c1ccc(Cl)cc1)=N[C@@H](CCNCCCCNC(=O)COc1cccc3c1C(=O)N(C1CCC(=O)NC1=O)C3=O)c1nnc(C)n1-2 (stereo not given in full) | 110 | 108 nM | 71.5
10 | 2.81 |  |  | 10.8 nM | 76% | 66.9 nM | 503 nM | 121 nM | Cc1sc2c(c1C)C(c1ccc(Cl)cc1)=N[C@@H](CCCCCNC(=O)COc1cccc3c1C(=O)N(C1CCC(=O)NC1=O)C3=O)c1nnc(C)n1-2 (stereo not given in full) | 4.2 | 29.2 nM | 156
